Drawing on patent publication US6262084A, “Compounds that inhibit the binding of integrins to their receptors” (Texas Biotechnology Corporation, priority 1999, dated 2001), this text covers inhibition and IC50 for 26 molecules.

The test has as its target T1, α4β1 integrin (Homo sapiens, UniProt P05556+P13612).
T1 construct: Ramos cells fluorescently labeled with calcein; endogenous in cells; host or cells: Ramos cells
Nature of the test: Inhibition of adhesion of calcein-labeled Ramos cells to CS1 (fibronectin) peptide-conjugated ovalbumin. Particulars: for inhibition at 100 µM: Ramos, compound at a concentration of 100 μM, read-out: % A (percent inhibition of cell adhesion); for IC50: dose required to give 50% inhibition, Ramos cell adhesion to CS1-ovalbumin, 30 minutes at 37° C. It is filed as cell-based. The method, boiled down: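 Calcein-labelled Ramos cells (2.5×10^5/well) in TBS with 1 mM MgCl2, CaCl2 and MnCl2 adhered to CS1 peptide–ovalbumin coated at 5 μg/ml for 30 min at 37 °C, with or without compound. After washing, bound cells were lysed and read by fluorescence. IC50 is the dose giving 50% inhibition, and % inhibition was measured at 100 μM.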

T1 sequence (P13612 34-1032): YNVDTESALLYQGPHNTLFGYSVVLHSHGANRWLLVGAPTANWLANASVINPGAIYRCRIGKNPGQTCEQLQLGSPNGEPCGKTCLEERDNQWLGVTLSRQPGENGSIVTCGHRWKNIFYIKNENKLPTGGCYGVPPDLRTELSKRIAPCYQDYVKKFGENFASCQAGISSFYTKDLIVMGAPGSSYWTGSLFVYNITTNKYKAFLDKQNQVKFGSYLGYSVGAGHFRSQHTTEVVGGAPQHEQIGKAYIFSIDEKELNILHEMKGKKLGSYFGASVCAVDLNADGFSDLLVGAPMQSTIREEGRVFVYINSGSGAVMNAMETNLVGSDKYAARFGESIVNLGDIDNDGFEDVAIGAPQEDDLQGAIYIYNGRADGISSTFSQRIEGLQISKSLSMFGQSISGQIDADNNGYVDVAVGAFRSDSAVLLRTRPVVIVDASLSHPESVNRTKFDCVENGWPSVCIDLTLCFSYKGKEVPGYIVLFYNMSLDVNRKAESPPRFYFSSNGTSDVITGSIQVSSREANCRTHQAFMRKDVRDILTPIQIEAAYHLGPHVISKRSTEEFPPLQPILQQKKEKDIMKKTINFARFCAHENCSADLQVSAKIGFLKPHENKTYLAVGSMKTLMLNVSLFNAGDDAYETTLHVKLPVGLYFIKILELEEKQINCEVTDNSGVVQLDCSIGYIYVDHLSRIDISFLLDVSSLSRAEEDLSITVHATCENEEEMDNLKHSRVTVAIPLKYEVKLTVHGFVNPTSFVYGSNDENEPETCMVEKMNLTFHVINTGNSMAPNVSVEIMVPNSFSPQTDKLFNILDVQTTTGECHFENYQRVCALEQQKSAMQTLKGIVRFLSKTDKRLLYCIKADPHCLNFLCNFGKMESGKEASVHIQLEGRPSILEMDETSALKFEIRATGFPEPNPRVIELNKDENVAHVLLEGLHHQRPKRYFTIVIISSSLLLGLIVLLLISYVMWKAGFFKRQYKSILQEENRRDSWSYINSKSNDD
T1 sequence (P05556 21-798): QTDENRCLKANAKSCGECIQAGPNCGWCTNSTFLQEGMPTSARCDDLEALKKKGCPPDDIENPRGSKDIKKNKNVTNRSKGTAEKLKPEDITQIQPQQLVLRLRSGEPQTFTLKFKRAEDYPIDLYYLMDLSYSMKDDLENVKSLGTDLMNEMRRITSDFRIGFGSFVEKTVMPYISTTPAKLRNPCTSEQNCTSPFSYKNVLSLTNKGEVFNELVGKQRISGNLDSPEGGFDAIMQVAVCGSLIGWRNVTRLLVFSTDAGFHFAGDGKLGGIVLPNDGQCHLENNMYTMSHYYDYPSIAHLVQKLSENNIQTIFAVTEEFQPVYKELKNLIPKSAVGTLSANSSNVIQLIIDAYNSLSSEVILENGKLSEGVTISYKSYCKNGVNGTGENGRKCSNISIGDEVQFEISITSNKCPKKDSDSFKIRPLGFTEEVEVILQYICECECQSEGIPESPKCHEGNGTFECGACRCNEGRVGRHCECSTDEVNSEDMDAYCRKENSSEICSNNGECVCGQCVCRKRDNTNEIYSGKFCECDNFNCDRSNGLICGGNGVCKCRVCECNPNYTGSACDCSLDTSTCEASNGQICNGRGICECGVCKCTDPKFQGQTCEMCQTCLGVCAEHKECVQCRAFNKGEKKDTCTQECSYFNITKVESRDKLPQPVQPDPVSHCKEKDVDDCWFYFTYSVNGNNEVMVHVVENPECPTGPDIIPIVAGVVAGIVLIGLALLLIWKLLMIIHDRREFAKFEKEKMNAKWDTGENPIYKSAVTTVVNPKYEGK

In general, inhibition refers to how much of the control response was suppressed. A word on the IC50: it is the point on the concentration scale where inhibition reaches its midpoint. As to `CSCC[C@@H](CSc1ccc(NC(=O)Nc2ccccc2C)cc1)NC(=O)N[C@@H](CC(=O)O)c1ccc2c(c1)OCO2` [(3S)-3-(1,3-benzodioxol-5-yl)-3-{[({(1S)-3-(methylsulfanyl)-1-[({4-[(2-toluidinocarbonyl)amino]phenyl}sulfanyl)methyl]propyl}amino)carbonyl]amino}propanoic acid], under “Table 1”, the inhibition at 100 µM was 100% and the IC50 is 0.9 nM.

For the molecule `CSCC[C@@H](CSc1ccccc1C)NC(=O)N[C@@H](CC(=O)O)c1ccc2c(c1)OCO2` [(3S)-3-(1,3-benzodioxol-5-yl)-3-[({[(1S)-1-{[(2-methylphenyl)sulfanyl]methyl}-3-(methylsulfanyl)propyl]amino}carbonyl)amino]propanoic acid], where the note is “Table 1”, the inhibition at 100 µM was 100% and the IC50 is 300 nM. With `CCCC[C@H](NC(=O)N[C@@H](CC(=O)O)c1ccc2c(c1)OCO2)C(=O)NCc1ccc(NCc2cccc(C)n2)cc1` [Compound 43], the half-inhibitory concentration (IC50) (Table 2) is 120 nM. With `CCSC[C@@H](CSc1ccccc1)NC(=O)N[C@@H](CC(=O)O)c1ccc2c(c1)OCO2` [(3S)-3-(1,3-benzodioxol-5-yl)-3-{[({(1S)-2-(ethylsulfanyl)-1-[(phenylsulfanyl)methyl]ethyl}amino)carbonyl]amino}propanoic acid], under “Table 1”, the inhibition at 100 µM was 100% and the concentration for half-maximal inhibition (IC50) is 50 nM.

As to `COc1ccc(SC[C@H](CCSC)NC(=O)N[C@@H](CC(=O)O)c2ccc3c(c2)OCO3)cc1` [(3S)-3-(1,3-benzodioxol-5-yl)-3-[({[(1S)-1-{[(4-methoxyphenyl)sulfanyl]methyl}-3-(methylsulfanyl)propyl]amino}carbonyl)amino]propanoic acid], where the note is “Table 1”, the inhibition at 100 µM is 100% and the IC50 is 7000 nM. The like results for `O=C(O)C[C@H](NC(=O)O[C@@H](COCCc1ccccc1)CSc1ccccc1)c1ccc2c(c1)OCO2` [(3S)-3-(1,3-benzodioxol-5-yl)-3-{[({(1S)-2-(phenethyloxy)-1-[(phenylthio)methyl]ethyl}oxy)carbonyl]amino}propanoic acid] were, in that order, 100% and 4000 nM. Taken in the same sequence, the figures for `O=C(O)C[C@H](NC(=O)N[C@H](COCc1ccccc1)CSCc1ccccc1)c1ccc2c(c1)OCO2` [(3S)-3-(1,3-benzodioxol-5-yl)-3-{[({(1R)-2-(benzyloxy)-1-[(benzylthio)methyl]ethyl}amino)carbonyl]amino}propanoic acid] were 100% and 1000 nM. Taken in the same sequence, the figures for `Cc1ccc(S(=O)(=O)NC[C@@H](CSc2ccccc2)NC(=O)N[C@@H](CC(=O)O)c2ccc3c(c2)OCO3)cc1` [(3S)-3-(1,3-benzodioxol-5-yl)-3-{[({(1S)-2-{[(4-methylphenyl)sulfonyl]amino}-1-[(phenylthio)methyl]ethyl}amino)carbonyl]amino}propanoic acid] were 98% and 10000 nM. Turning to `COC(=O)NCCCC[C@H](NC(=O)N[C@@H](CC(=O)O)c1ccc2c(c1)OCO2)C(=O)NCC1CCNCC1` [(9S,13S)-13-(1,3-benzodioxol-5-yl)-3,11-dioxo-9-{[(4-piperidinylmethyl)amino]carbonyl}-2-oxa-4,10,12-triazapentadecan-15-oic acid], for the setting “Table 1”, the inhibition at 100 µM was 97% and the half-inhibitory concentration (IC50) is 5000 nM. For `CCSC[C@@H](CSc1ccccc1)OC(=O)N[C@@H](CC(=O)O)c1ccc2c(c1)OCO2` [(3S)-3-(1,3-benzodioxol-5-yl)-3-{[({(1S)-2-(ethylthio)-1-[(phenylthio)methyl]ethyl}oxy)carbonyl]amino}propanoic acid], for the setting “Table 1”, the inhibition at 100 µM is 100% and the IC50 is 1000 nM. Taken in the same sequence, the figures for `COC(=O)NCCCC[C@H](NC(=O)N[C@@H](CC(=O)O)c1ccc2c(c1)OCO2)C(=O)NCc1nc2ccccc2[nH]1` [(9S,13S)-9-{[(1H-benzimidazol-2-ylmethyl)amino]carbonyl}-13-(1,3-benzodioxol-5-yl)-3,11-dioxo-2-oxa-4,10,12-triazapentadecan-15-oic acid] were 100% and 2000 nM.

Regarding `O=C(O)C[C@H](NC(=O)NC(CSc1ccccc1)CSc1ccccc1)c1ccc2c(c1)OCO2` [(3S)-3-(1,3-benzodioxol-5-yl)-3-{[({2-(phenylsulfanyl)-1-[(phenylsulfanyl)methyl]ethyl}amino)carbonyl]amino}propanoic acid], under “Table 1”, the inhibition at 100 µM was 99% and the IC50 is 1500 nM. Taken in the same sequence, the figures for `CSCC[C@@H](CSc1ccccc1)N(C)C(=O)N[C@@H](CC(=O)O)c1ccc2c(c1)OCO2` [(3S)-3-(1,3-benzodioxol-5-yl)-3-{[(methyl{(1S)-3-(methylsulfanyl)-1-[(phenylsulfanyl)methyl]propyl}amino)carbonyl]amino}propanoic acid] were 78% and 35000 nM. The like results for `O=C(O)C[C@H](NC(=O)N[C@@H](CCCCNC(=O)OCc1ccccc1)C(=O)NCc1cccs1)c1ccc2c(c1)OCO2` [Compound 27, (9S,13S)-13-(1,3-benzodioxol-5-yl)-3,11-dioxo-1-phenyl-9-{[(2-thienylmethyl)amino]carbonyl}-2-oxa-4,10,12-triazapentadecan-15-oic acid] were, in that order, 100% and 200 nM. The like results for `CSCC[C@@H](CSc1ccccc1)NC(=O)NCCC(=O)O` [3-{[({(1S)-3-(methylsulfanyl)-1-[(phenylsulfanyl)methyl]propyl}amino)carbonyl]amino}propanoic acid] were, in that order, 96% and 25000 nM. Consider `CC(C)[C@@H](CSc1ccccc1)NC(=O)N[C@H](CC(=O)O)c1ccc2c(c1)OCO2` [(3R)-3-(1,3-benzodioxol-5-yl)-3-{[({(1S)-2-methyl-1-[(phenylsulfanyl)methyl]propyl}amino)carbonyl]amino}propanoic acid], for which, where the note is “Table 1”, the inhibition at 100 µM was 83% and the half-inhibitory concentration (IC50) was 35000 nM.

For the molecule `CSC[C@@H](CSc1ccccc1)NC(=O)N[C@@H](CC(=O)O)c1ccc2c(c1)OCO2` [(3S)-3-(1,3-benzodioxol-5-yl)-3-{[({(1S)-2-(methylsulfanyl)-1-[(phenylsulfanyl)methyl]ethyl}amino)carbonyl]amino}propanoic acid], where the note is “Table 1”, the inhibition at 100 µM was 100% and the half-maximal inhibitory concentration (IC50) is 100 nM.

As to `O=C(O)C[C@H](NC(=O)N[C@@H](CCCCNC(=O)OCc1ccccc1)C(=O)NCc1cccs1)C(=O)O` [(2S)-2-({[((1S)-5-{[(benzyloxy)carbonyl]amino}-1-{[(2-thienylmethyl)amino]carbonyl}pentyl)amino]carbonyl}amino)butanedioic acid], under “Table 1”, the inhibition at 100 µM was 89% and the 50% inhibitory concentration (IC50) was 45000 nM. Taken in the same sequence, the figures for `CCSC[C@@H](COCc1ccccc1)OC(=O)N[C@@H](CC(=O)O)c1ccc2c(c1)OCO2` [(3S)-3-(1,3-benzodioxol-5-yl)-3-{[({(1R)-2-(benzyloxy)-1-[(ethylthio)methyl]ethyl}oxy)carbonyl]amino}propanoic acid] were 100% and 12000 nM. Taken in the same sequence, the figures for `CCCC[C@@H](CSc1ccc(NC(=O)Nc2ccccc2C)cc1)OC(=O)N[C@@H](CC(=O)O)c1ccc2c(c1)OCO2` [(3S)-3-(1,3-benzodioxol-5-yl)-3-{[({(1S)-1-[({4-[(2-toluidinocarbonyl)amino]phenyl}thio)methyl]pentyl}oxy)carbonyl]amino}propanoic acid] were 100% and 300 nM.

Turning to `CSCC[C@@H](CSc1ccc(NCc2ccccc2C)cc1)NC(=O)N[C@@H](CC(=O)O)c1ccc2c(c1)OCO2` [(3S)-3-(1,3-benzodioxol-5-yl)-3-[({[(1S)-1-[({4-[(2-methylbenzyl)amino]phenyl}thio)methyl]-3-(methylthio)propyl]amino}carbonyl)amino]propanoic acid], for the setting “Table 1”, the inhibition at 100 µM is 93% and the half-maximal inhibitory concentration (IC50) was 2000 nM. The like results for `CCCC[C@@H](CSc1cccc(NCc2ccccc2C)c1)OC(=O)N[C@@H](CC(=O)O)c1ccc2c(c1)OCO2` [Compound 15, (3S)-3-(1,3-benzodioxol-5-yl)-3-{[({(1S)-1-[({3-[(2-methylbenzyl)amino]phenyl}thio)methyl]pentyl}oxy)carbonyl]amino}propanoic acid] were, in that order, 100% and 25000 nM.

Consider `CCCC[C@H](NC(=O)N[C@@H](CC(=O)O)c1ccc2c(c1)OCO2)C(=O)NCc1cccs1` [Compound 34, (3S)-3-(1,3-benzodioxol-5-yl)-3-([((1S)-1-[(2-thienylmethyl)amino]carbonylpentyl)amino]carbonylamino)propanoic acid], for which the 50% inhibitory concentration (IC50) (Table 2) was 250 nM. With `CSCC[C@@H](CSc1ccccc1)NC(=O)N[C@@H](CC(=O)O)c1ccc2c(c1)OCO2` [(3S)-3-(1,3-benzodioxol-5-yl)-3-(((((1S)-3-(methylsulfanyl)-1-((phenylsulfanyl)methyl)propyl)amino)carbonyl)amino)propanoic acid], for the setting “Table 1”, the inhibition at 100 µM was 100% and the half-maximal inhibitory concentration (IC50) was 300 nM. Taken in the same sequence, the figures for `O=C(O)C[C@H](NC(=O)N[C@@H](CCCCNC(=O)OCc1ccccc1)C(=O)NCCc1ccccn1)c1ccc2c(c1)OCO2` [(9S,13S)-13-(1,3-benzodioxol-5-yl)-3,11-dioxo-1-phenyl-9-({[2-(2-pyridinyl)ethyl]amino}carbonyl)-2-oxa-4,10,12-triazapentadecan-15-oic acid] were 100% and 2000 nM. Turning to `COC(=O)NCCC[C@@H](CSc1ccccc1)NC(=O)N[C@@H](CC(=O)O)c1ccc2c(c1)OCO2` [(8S,12S)-12-(1,3-benzodioxol-5-yl)-3,10-dioxo-8-((phenylsulfanyl)methyl)-2-oxa-4,9,11-triazatetradecan-14-oic acid], where the note is “Table 1”, the inhibition at 100 µM is 100% and the IC50 is 2000 nM.
